# Measurements from patent publication US9303017B2, “2,5-disubstituted-pyridyl nicotinic ligands, and methods of use thereof” (Georgetown University, priority 2011, dated 2016).
# Read-outs that look alike come from different tables or passages of the source.
# How the values were obtained:
# [1] = target: α4β2 nAChR (Rattus norvegicus (Rat), UniProt P09483+P12390); test: biochemical; type: binding
# Experimental: (§1) In Vitro Binding Affinities for nAChR Subtypes. […] To determine selectivities of these compounds in binding assays among the three predominant nAChR subtypes, α3β4, α4β2 and α7, the ratios of Ki values (α3β4/α4β2 and α7/α4β2) were determined.
# (§2) Cell Lines and Cell Culture. The cell lines expressing defined rat nAChR subtypes were established previously by stably transfecting HEK 293 cells with rat nAChR subunit genes. The cell line expressing human α4β2 nAChRs, YXα4β2H1, was established recently. These cell lines were maintained in minimum essential medium (MEM) supplemented with 10% fetal bovine serum, 100 units/mL penicillin G, […] and selective antibiotics at 37° C. with 5% CO2 in a humidified incubator. Fetal bovine serum was provided by Gemini Bio-Products (Woodland, Calif.). Tissue culture medium and antibiotics were obtained from Invitrogen Corporation (Carlsbad, Calif.), unless otherwise stated.
# (§3) Briefly, cultured cells at >80% confluence were removed from their flasks (80 cm^2) with a disposable cell scraper and placed in 10 mL of 50 mM Tris.HCl buffer (pH 7.4, 4° C.). The cell suspension was centrifuged at 10,000×g for 5 min and the pellet was collected. The cell pellet was then homogenized in 10 mL buffer with a polytron homogenizer and centrifuged at 36,000 g for 10 min at 4° C. The membrane pellet was resuspended in fresh buffer, and aliquots of the membrane preparation were used for binding assays. […] Bound and free ligands were separated by vacuum filtration through Whatman GF/C filters treated with 0.5% polyethylenimine. The filter-retained radioactivity was measured by liquid scintillation counting. Specific binding was defined as the difference between total binding and nonspecific binding. Data from competition binding assays were analyzed using Prism 5 (GraphPad Software, San Diego, Calif.).
# (§4) Pharmacological Properties. We measured the in vitro binding affinities of the ligands for defined receptor subtypes (α2β2, α2β4, α3β2, α3β4, α4β2, α4β4, α6β2, α6β4, and α7) expressed in stably transfected cell lines. […] Rat forebrain homogenates were included to allow comparison between the heterologous and native α4β2 and α7 nAChRs. See Table 1 for binding affinity values (Ki) of the ligands at the three major nAChR subtypes (α3β4. α4β2 and α7).
# [2] = target: α7 nAChR (Rattus norvegicus (Rat), UniProt Q05941); type: binding; settings: Table 1; mean of 3 to 5 measurements
# Experimental: as §1, §2, §3, §4
# [3] = target: human α4β2 nAChRs (Homo sapiens (Human), UniProt P17787+P43681); test: 86Rb+ efflux assay (activation and desensitization), α4β2; type: cell-based; settings: for Emax: read-out: Emax α4β2 nAChRs; for IC50: desensitization
# Experimental: (§5) In Vitro Effects on nAChR Function. […] Their agonist activities were assessed by measuring stimulated ^86Rb^+ efflux from stably transfected cells, either expressing human α4β2 nAChRs or rat α3β4 receptors.
# as §2
# (§6) ^86Rb^+ Efflux Assay. Functional properties of compounds at nAChRs expressed in the transfected cells were measured using ^86Rb^+ efflux assays as described previously. In brief, cells expressing human α4β2 or rat α3β4 nAChRs were plated into 24-well plates coated with poly-D-lysine. The plated cells were grown at 37° C. for 18 to 24 hour to reach 85-95% confluence. The cells were then incubated in growth medium (0.5 mL/well) containing ^86Rb^+ (2 μCi/mL) for 4 hour at 37° C. The loading mixture was then aspirated, and the cells were washed four times with 1 mL buffer (15 mM HEPES, 140 mM NaCl, 2 mM KCl, 1 mM MgSO4, 1.8 mM CaCl2, 11 mM Glucose, pH 7.4). One mL of buffer with or without compounds to be tested was then added to each well. After incubation for 2 min, the assay buffer was collected for measurements of ^86Rb^+ released from the cells. Cells were then lysed by adding 1 mL of 100 mM NaOH to each well, and the lysate was collected for determination of the amount of ^86Rb^+ that was in the cells at the end of the efflux assay. Radioactivity of assay samples and lysates was measured by liquid scintillation counting. Total loading (cpm) was calculated as the sum of the assay sample and the lysate of each well. The amount of ^86Rb^+ efflux was expressed as a percentage of ^86Rb^+ loaded. […] For obtaining EC50 and Emax values, stimulation curves were constructed in which 8 different concentrations of a ligand were included in the assay. […] EC50, Emax and IC50(10′) values were determined by nonlinear least-squares regression analyses (GraphPad, San Diego, Calif.).
# (§7) The functional properties of the ligands were determined by ^86Rb^+ efflux assays in cells expressing α3β4 and α4β2 nAChR subtypes. The functional activity of each ligand was measured for its agonism, antagonism and desensitization ability. Agonist activity for each of the ligands was tested at eight different concentrations. […] The full concentration-effect curves generated potency (EC50) and efficacy (Emax) of each ligand. […] We tested each ligand for antagonist activity at eight concentrations. The potency (IC50(0′)) of each ligand as an antagonist was derived from the full concentration-effect curves.
# [4] = target: rat α3β4 nAChRs (Rattus norvegicus (Rat), UniProt P04757+P12392); test: 86Rb+ efflux assay (activation and desensitization), α3β4; type: cell-based; settings: read-out: IC50(10′) α3β4 nAChRs
# Experimental: as §5, §2, §6, §7
smiles,measurement,setting,value
"CCCCC#Cc1cnc(C)c(OC[C@@H]2CCN2)c1 [(S)-15, (S)-3-(azetidin-2-ylmethoxy)-5-(hex-1-ynyl)-2-methylpyridine]",Ki,"[1]; Table 3 (Example 4), read-out: Ki α4β2",12 nM
same,Ki Ratio α3β4/α4β2,[1]; selectivity for α4β2 over α3β4,"19,000"
same,Ki Ratio α7/α4β2,[1]; selectivity for α4β2 over α7,"7,800"
same,Ki,[2],93 µM
same,EC50,"[3]; agonist activity, ND = no significant stimulated efflux detected",310 nM
same,Emax,"[3]; agonist efficacy normalized to Emax of nicotine, ND = no significant stimulated efflux detected",< 20%
same,IC50,"[3]; 10 min pre-treatment, Table 3 (Example 4), read-out: IC50(10′) α4β2",18 nM
same,IC50,"[3]; 10 min pre-incubation before 100 μM nicotine, Table 2, read-out: IC50(10′) α4β2 nAChRs",180 nM
same,Emax,[3],15%
same,IC50,[4],> 10 µM
